Reference: patent US10392368B2, “Pyrazolo and triazolo bicyclic compounds as JAK kinase inhibitors” (THERAVANCE BIOPHARMA R&D IP, LLC, priority 2017, dated 2019)

System: IL-2 stimulated pSTAT5 in PBMC CD4+ T cells
Test: Inhibition of IL-2 stimulated pSTAT5 in human PBMC CD4+ T cells
Type: cell-based
Conditions: flow cytometry
Experimental: The potency of test compounds for inhibition of interleukin-2 (IL-2) stimulated STAT5 phosphorylation was measured in human peripheral blood mononuclear cell (PBMC) CD4+ T cells using flow cytometry. Because IL-2 signals through JAK3, this assay provides a measure of JAK3 cellular potency in human primary cells.
Phosphorylated STAT5 was measured via flow cytometry by measuring pSTAT5 response in CD4+ T cells (Becton Disckinson, AlexaFluor 647 Mouse anti-Human STAT5 (pY694) and PE Mouse anti-Human CD4).
Human PBMCs were isolated from donors via Ficoll gradient and frozen at −80° C. Frozen PBMCs were thawed and cultured for one hour in a 37° C., 5% CO2 humidified incubator in RPMI (Life Technologies) supplemented with 10% Heat Inactivated Fetal Bovine Serum (FBS, Life Technologies), 2 mM Glutamax (Life Technologies), 25 mM HEPES (Life Technologies) and 1× Pen/Strep (Life Technologies). Cells were seeded into 2 ml deep well plates at 4e6 cells/ml (50 μl/well). […]
To determine the inhibitory potency of test compounds in response to IL-2, the median fluorescence intensity of pSTAT5 in CD4+ gated cells was measured in human PBMCs with a BD LSRII with analysis in FCS Express 6. IC50 values were determined from analysis of the inhibition curves of signal intensity vs compound concentration. Data are expressed as pIC50 (negative decadic logarithm IC50) values (mean±standard deviation).

SMILES | pIC50, inhibition of IL-2 stimulated pSTAT5, compared with assay 2
CN(C)C/C=C/C(=O)N1CC(C#N)(COc2cc(-c3ccc(O)c(F)c3)cc3[nH]ncc23)C1 [Compound 8, (E)-1-(4-(dimethylamino)but-2-enoyl)-3-(((6-(3-fluoro-4-hydroxyphenyl)-1Hindazol-4-yl)oxy)methyl)azetidine-3-carbonitrile] | values very similar to the ones obtained in assay 2
CN(C)C/C=C/C(=O)N1CCC(C)(Oc2cc(-c3ccc(O)cc3)cc3[nH]ncc23)CC1 [Compound 9, (E)-4-(dimethylamino)-1-(4-((6-(4-hydroxyphenyl)-1H-indazol-4-yl)oxy)-4-methylpiperidin-1-yl)but-2-en-1-one] | values very similar to the ones obtained in assay 2
